From patent US20080008760A1, “Functionalized carbon nanotubes, a process for preparing the same and their use in medicinal chemistry” (priority 2003, published 2008) come the findings set out here.

For experiment [1], the system named is Murine 3T3 cells (ATCC CCL-92). Nature of the experiment: Cytofluorometry: penetration of FITC functionalized nanotube into cells. The format is cell-based. The conditions noted are these: 1 μM, 5 μM and 10 μM, 1 hour.
In experiment [2] the test system is Murine 3T3 cells (ATCC CCL-92). Nature of the experiment: Fluorescent and confocal microscopy: penetration of FITC functionalized nanotubes into cells. The format is cell-based. The following applies: 1 μM, 5 μM and 10 μM; FIG. 3: 40 minutes incubation.

With `O=C(O)c1cc(NC(=S)NCCOCCOCCN2CCCC2)ccc1-c1c2ccc(=O)cc-2oc2cc(O)ccc12` [formula (L)], the “penetration into 3T3 cells (cytofluorometry)” value in experiment [1] is reported as “readily penetrate into 3T3 cells”. Further, the “penetration into 3T3 cells (fluorescence microscopy, FIG. 3)” value in experiment [2] is reported as “have penetrated into 3T3 cells”.
